Laboratory results reported in patent publication US10189795B2, “Aryl amine substituted quinoxaline used as anticancer drugs” (priority 2014, dated 2019).

Assays:
PP2A = PP2A phosphatase activity (malachite green-phosphate assay in cell lysate); type: cell-based
Experimental: The protein phosphatase activity in each cell lysate was determined by measuring the generation of free phosphate from threonine phosphopeptide using the malachite green-phosphate complex assay as described by the manufacturer (Upstate Biotechnology, Lake Placid, N.Y., USA). In brief, HCC cell lysates were first prepared in a low-detergent lysis buffer. […] After incubation for 10 min at 30° C., the malachite dye was added and free phosphate was measured by optical density at 650 nm. In order to avoid variation resulting from differences in the amount of immunoprecipitation protein between samples, the phosphatase activities were normalized to the amounts of PP2A immunoprecipitated, which were detected and quantified by immunoblot analysis for each treatment group.

H2170 = assay: cell viability of H2170 cells, 1 and 10 uM; type: cell-based; settings: Homo sapiens, NCI-H2170
Experimental: [Worded in the source for another cell line; this cell line is reported under the same test.] (§1) Sorafenib (Nexavar), erlotinib (Tarceva) and Paclitaxel were kindly provided by Bayer Pharmaceuticals (Pittsburgh, Pa., USA) and Roche Pharmaceuticals (Basel, Switzerland) respectively. Okadaic acid (OA) was purchased from Cayman Chemical (Ann Arbor, Mich., USA) and z-VAD-fmk was obtained from Sigma (St. Louis, Mo., USA). For in vitro studies, drugs at various concentrations were dissolved in dimethyl sulfoxide (DMSO), and added to cells in Dulbecco's modified Eagle's medium (DMEM) or Roswell Park Memorial Institute (RPMI) containing 5% fetal bovine serum (FBS).
(§2) The Sk-Hep1, PLC/PRF/5 (PLC) and Hep3B cell lines were obtained from American Type Culture Collection (ATCC; Manassas, Va., USA). The Huh-7 HCC cell line was obtained from the Health Science Research Resources Bank (HSRRB; Osaka, Japan; JCRB0403). Cells were maintained in DMEM supplemented with 10% FBS in a 37° C. humidified incubator in an atmosphere of 5% CO^2 in air.

A549 = assay: cell viability of A549 cells, 1 and 10 uM; type: cell-based; settings: Homo sapiens
Experimental: [Worded in the source for another cell line; this cell line is reported under the same test.] as §1, §2

SET-PP2Ac binding = molecular target: T1, SET-PP2Ac binding (Homo sapiens, UniProt Q01105); assay: disruption of SET-PP2Ac binding (surface plasmon resonance, co-IP)
T1 construct: His; purchased Genway (SET-His); Abnova (PP2Ac-GST) GWB-ATG319; H00005515
T1 sequence (Q01105 1-277 isoform Q01105-2): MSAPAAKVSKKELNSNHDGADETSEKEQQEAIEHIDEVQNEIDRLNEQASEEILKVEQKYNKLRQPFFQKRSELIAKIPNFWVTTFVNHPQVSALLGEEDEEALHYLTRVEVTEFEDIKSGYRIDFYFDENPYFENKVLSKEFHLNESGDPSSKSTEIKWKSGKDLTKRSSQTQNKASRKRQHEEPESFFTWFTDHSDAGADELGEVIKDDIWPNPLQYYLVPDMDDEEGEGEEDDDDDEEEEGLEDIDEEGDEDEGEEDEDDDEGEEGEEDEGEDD
Experimental: Binding affinities of full-length SET and truncated SET to PP2Ac and the effect of the erlotinib derivatives of the present invention on disrupting SET and PP2Ac were analyzed. PP2Ac-GST recombinant protein was bound in the CMS chip pre-coated with GST-capture antibodies. Sensorgrams were generated by injecting several concentrations of the erlotinib derivatives of the present invention mixed with fixed-concentration of SET recombinant protein, or the mixture of different concentration of truncated SET proteins in a fixed-dose EMQA. PP2Ac-GST recombinant protein used for this experiment was purchased from Abnova (H00005515) and SET-His recombinant protein was obtained from Genway (GWB-ATG319).
EMQA reactivates PP2A by disrupting the binding of SET-PP2Ac. To validate the role of SET, the present invention generated Hep3B cells with ectopic expression of myc-tagged SET by transient transfection. […] With a fixed amount of PP2Ac coated on the CM chip, the present invention tested the effects of a fixed-dose of EMQA on interfering different proportions of full-length and truncated forms of SET proteins in SPR system. […] To validate the findings of this ex vivo system, the present invention generated cells with ectopic overexpression of these two truncated forms of Flag-tagged SET proteins by transient transfections.

SW900 = assay: cell viability of SW900 cells, 1 and 10 uM; type: cell-based; settings: Homo sapiens
Experimental: [Worded in the source for another cell line; this cell line is reported under the same test.] as §1, §2

H358 = assay: cell viability of H358 cells, 1 and 10 uM; type: cell-based; settings: Homo sapiens, NCI-H358
Experimental: [Worded in the source for another cell line; this cell line is reported under the same test.] as §1, §2

NCI-H226 = assay: cell viability of NCI-H226 cells, 1 and 10 uM; type: cell-based; settings: Homo sapiens
Experimental: [Worded in the source for another cell line; this cell line is reported under the same test.] as §1, §2

H520 = assay: cell viability of H520 cells, 1 and 10 uM; type: cell-based; settings: Homo sapiens, NCI-H520
Experimental: [Worded in the source for another cell line; this cell line is reported under the same test.] as §1, §2

NCI-1703 = assay: cell viability of NCI-1703 cells, 1 and 10 uM of each erlotinib derivative, and IC50; type: cell-based; settings: Homo sapiens
Experimental: [Worded in the source for another cell line; this cell line is reported under the same test.] as §1, §2

| Compound | minimal concentration for PP2A activation (PP2A) | viability at 1 µM (H2170) | viability at 10 µM (H2170) | viability at 1 µM (A549) | viability at 10 µM (A549) | minimal concentration to disrupt SET-PP2Ac binding (SET-PP2Ac binding) | viability at 1 µM (SW900) | viability at 10 µM (SW900) | viability at 1 µM (H358) | viability at 10 µM (H358) | viability at 1 µM (NCI-H226) | viability at 10 µM (NCI-H226) | viability at 1 µM (H520) | viability at 10 µM (H520) | viability at 1 µM (NCI-1703) | viability at 10 µM (NCI-1703) | IC50 (NCI-1703; cell viability) |
| --- | --- | --- | --- | --- | --- | --- | --- | --- | --- | --- | --- | --- | --- | --- | --- | --- | --- |
| FS(F)(F)(F)(F)c1ccc(Nc2nc3ccccc3nc2Nc2ccc(S(F)(F)(F)(F)F)cc2)cc1 [TD68, N^2,N^3-bis(4-(Pentafluorothio)phenyl)quinoxaline-2,3-diamine] | <50 nM | 69.39 ± 0.67% | 0.17 ± 0.16% | 57.3 ± 19.1% | 32.9 ± 4% | 50 nM | 3.38 ± 4.64% | 0.57 ± 0.22% | 22.4 ± 1.8% | 16.7 ± 0.8% | 40.2 ± 0.3% | 14.8 ± 0.3% | 10.1 ± 0.85% | 0.47 ± 0.11% | 48.6 ± 2% | 33.3 ± 7.1% | – |
| FS(F)(F)(F)(F)c1ccc(Nc2nc3ccccc3nc2Cl)cc1 [TD81, 3-chloro-N-(4-(Pentafluorothio)phenyl)quinoxalin-2-amine] | >200 nM | 100 ± 6.2% | 82.7 ± 2.44% | 95.6 ± 15.9% | 69.4 ± 3.4% | >200 nM | 86.9 ± 7.36% | 60.2 ± 11.2% | 116 ± 5.9% | 75.5 ± 3.9% | 100 ± 4.1% | 92 ± 3.8% | 103.4 ± 0.14% | 72.4 ± 11.3% | 82.7 ± 5% | 85.8 ± 0.1% | – |
| COc1cccc(Nc2nc3ccc([N+](=O)[O-])cc3nc2Nc2cccc(OC)c2)c1 [TD608, N^2,N^3-bis(3-methoxyphenyl)-6-nitroquinoxaline-2,3-diamine] | >200 nM | 113 ± 8.63% | 4.71 ± 0.24% | 71.5 ± 35% | 10.3 ± 3.5% | >200 nM | 114 ± 2.6% | 39.8 ± 51.2% | 110 ± 44% | 31.7 ± 33.3% | 104 ± 2.5% | 40.6 ± 2.4% | 97 ± 19.8% | 1.77 ± 1.7% | 52.8 ± 4.5% | 12.7 ± 0.9% | – |
| FC(F)(F)Oc1ccc(Nc2nc3ccccc3nc2Cl)cc1 [TD80, 3-chloro-N-(4-(trifluoromethoxy)phenyl)quinoxalin-2-amine] | >200 nM | 91.6 ± 5.42% | 87.56 ± 0.78% | 110 ± 6% | 83.4 ± 16.4% | >200 nM | 99.8 ± 11.8% | 88 ± 13.4% | 119 ± 3.7% | 89.4 ± 11.9% | 103 ± 10.7% | 87.8 ± 9.3% | 104 ± 1.3% | 92.2 ± 4.42% | 106 ± 5.2% | 52.3 ± 2.4% | – |
| Nc1ccc2nc(Nc3ccc(C(F)(F)F)cc3)c(Nc3ccc(C(F)(F)F)cc3)nc2c1 [TD607, N^2,N^3-bis(4-(trifluoromethyl)phenyl)quinoxaline-2,3,6-triamine] | >200 nM | 104 ± 14.2% | 1.34 ± 0.93% | 100 ± 5.9% | 9.5 ± 0.6% | >200 nM | 85.9 ± 10.4% | 0.61 ± 5% | 116 ± 15.5% | 12.1 ± 0.3% | 106 ± 2.6% | 36.7 ± 2.2% | 63.4 ± 53.7% | – | 49.7 ± 2.7% | 13.4 ± 1.6% | 1300 nM |
| FC(F)(F)Oc1ccc(Nc2nc3ccccc3nc2Nc2ccc(OC(F)(F)F)cc2)cc1 [TD65, N^2,N^3-bis(4-(trifluoromethoxy)phenyl)quinoxaline-2,3-diamine] | 50 to 100 nM | 77.9 ± 3.48% | 0.26 ± 0.1% | 66.4 ± 6.9% | 27.7 ± 2% | <100 nM | 0.73 ± 1.32% | – | 27.1 ± 1.2% | 18.3 ± 3% | 46.2 ± 2.5% | 14.1 ± 1.3% | 18.5 ± 1.23% | 0.47 ± 0.06% | 53.2 ± 2.3% | 26.3 ± 1% | – |
| COc1ccc(Nc2nc3ccc([N+](=O)[O-])cc3nc2Nc2cccc(O)c2)cc1 [TD612, 3-(2-(4-methoxyphenylamino)-6-nitroquinoxalin-3-ylamino)phenol] | <100 nM | 107 ± 4.84% | 22.5 ± 11.8% | 90.6 ± 18.2% | 10.3 ± 1.2% | – | 105 ± 3.4% | 64.7 ± 4% | 97.3 ± 13.4% | 12.8 ± 0.4% | 69.4 ± 6.8% | 38 ± 1.4% | 107 ± 2.62% | 12.9 ± 1.2% | 82.7 ± 2.4% | 13.4 ± 0.7% | – |
| FC(F)(F)c1cccc(Nc2nc3ccccc3nc2Nc2cccc(C(F)(F)F)c2)c1 [TD60, N^2,N^3-bis(3-(trifluoromethyl)phenyl)quinoxaline-2,3-diamine] | – | 72.3 ± 0.89% | 0.41 ± 0.65% | 91.3 ± 4% | 21.8 ± 1.4% | – | 19.3 ± 6.18% | – | 55.3 ± 1.9% | 18.1 ± 1.3% | 92.5 ± 1.7% | 15.9 ± 1% | 21.8 ± 1.52% | 0.36 ± 0.18% | 51.9 ± 2.9% | 26.1 ± 0.8% | – |
| COc1ccc(Nc2nc3ccc([N+](=O)[O-])cc3nc2Nc2ccc(OC)cc2)cc1 [TD602, N^2,N^3-bis(4-methoxyphenyl)-6-nitroquinoxaline-2,3-diamine] | – | 112 ± 3.97% | 7.14 ± 4.42% | 47.4 ± 2.4% | 10 ± 0.8% | – | 120 ± 5.8% | 2.05 ± 2.45% | 58.3 ± 9.2% | 12 ± 0.5% | 98.1 ± 5.9% | 8.1 ± 0.4% | 104 ± 2.31% | 0.89 ± 0.41% | 42 ± 1.1% | 9.8% | – |
| CCc1cccc(Nc2nc3ccccc3nc2Nc2cccc(CC)c2)c1 [TD59, N^2,N^3-bis(3-ethylphenyl)quinoxaline-2,3-diamine] | – | 88.4 ± 2.01% | 8.96 ± 1.43% | 164.6 ± 0.1% | 24.1 ± 3.9% | – | 110 ± 1.8% | – | 117 ± 12.1% | 19 ± 1.5% | 122 ± 2.6% | 32.5 ± 2.5% | 88.3 ± 1.5% | 0.41 ± 0.32% | 114 ± 7.4% | 26.4 ± 0.7% | – |
| O=[N+]([O-])c1ccc2nc(Nc3cccc(Br)c3)c(Nc3cccc(Br)c3)nc2c1 [TD618, N^2,N^3-bis(3-bromophenyl)-6-nitroquinoxaline-2,3-diamine] | >200 nM | – | – | 53.2 ± 6.3% | 26.9 ± 7% | >200 nM | – | – | 36.6 ± 1.6% | 20.4 ± 3.5% | 49.6 ± 9.4% | 16.7 ± 1.1% | – | – | 48.3 ± 4.8% | 31.9 ± 5% | – |
